Data: patent publication US12172959B2, “Mono- or di-substituted indole derivatives as dengue viral replication inhibitors” (priority 2015, dated 2024)

Experiments:
DENV-2 16681 strain = assay: DENV-2 antiviral assay (eGFP fluorescence, Vero cells); assay type: cell-based, Dengue virus; conditions: DENV-2 16681 eGFP, MOI 0.5, 3 days
Description: The antiviral activity of all the compounds of the invention was tested against the DENV-2 16681 strain which was labeled with enhanced green fluorescent protein (eGPF; Table 1). The culture medium consists of minimal essential medium supplemented with 2% of heat-inactivated fetal calf serum, 0.04% gentamycin (50 mg/mL) and 2 mM of L-glutamine. Vero cells, obtained from ECACC, were suspended in culture medium and 25 μL was added to 384-well plates (2500 cells/well), which already contain the antiviral compounds. Typically, these plates contain a 5-fold serial dilution of 9 dilution steps of the test compound at 200 times the final concentration in 100% DMSO (200 nL). […] Finally, each plate contains wells which are assigned as virus controls (containing cells and virus in the absence of compound), cell controls (containing cells in the absence of virus and compound) and medium controls (containing medium in the absence of cells, virus and compounds). To the wells assigned as medium control, 25 μL of culture medium was added instead of Vero cells. Once the cells were added to the plates, the plates were incubated for 30 minutes at room temperature to allow the cells to distribute evenly within the wells. Next, the plates were incubated in a fully humidified incubator (37° C., 5% CO2) until the next day. Then, DENV-2 strain 16681, labeled with eGFP, was added at a multiplicity of infection (MOI) of 0.5. Therefore, 15 μL of virus suspension was added to all the wells containing test compound and to the wells assigned as virus control. In parallel, 15 μL of culture medium was added to the medium and cell controls. Next, the plates were incubated for 3 days in a fully humidified incubator (37° C., 5% CO2). At the day of the read out, the eGFP fluorescence was measured using an automated fluorescence microscope at 488 nm (blue laser). Using an in-house LIMS system, inhibition dose response curves for each compound were calculated and the half maximal effective concentration (EC50) was determined. Therefore, the percent inhibition (I) for every test concentration is calculated using the following formula: I=100*(ST−SCC)/(SVC−SCC); ST, SCC and SVC are the amount of eGFP signal in the test compound, cell control and virus control wells, respectively. The EC50 represents the concentration of a compound at which the virus replication is inhibited with 50%, as measured by a 50% reduction of the eGFP fluorescent intensity compared to the virus control. The EC50 is calculated using linear interpolation.

Vero cells = conditions: African green monkey

Row | SMILES | EC50 (DENV-2 16681 strain; Dengue virus, DENV2, Vero, 72 h) [nM] | CC50 (Vero cells) [nM] | EC50 (DENV-2 16681 strain) [nM]
1 | COc1cc(NC(C(=O)c2c[nH]c3cc(F)ccc23)c2ccc(Cl)cc2OC)cc(S(C)(=O)=O)c1 (racemic) [Compound 1, 2-(4-chloro-2-methoxyphenyl)-1-(6-fluoro-1H-indol-3-yl)-2-((3-methoxy-5-(methylsulfonyl)phenyl)amino)ethanone] | 0.52 | 5500 | –
2 | COc1cc(NC(C(=O)c2c[nH]c3cc(F)ccc23)c2ccc(Cl)cc2OC)cc(S(C)(=O)=O)c1 (single isomer, unassigned) [Compound 1B, 2-(4-chloro-2-methoxyphenyl)-1-(6-fluoro-1H-indol-3-yl)-2-((3-methoxy-5-(methylsulfonyl)phenyl)amino)ethanone] | – | 6500 | 12
3 | COc1cc(NC(C(=O)c2c[nH]c3c(C)c(F)ccc23)c2ccc(Cl)cc2OC)cc(S(C)(=O)=O)c1 (single isomer, unassigned) [Compound 2B, 2-(4-chloro-2-methoxyphenyl)-1-(6-fluoro-7-methyl-1H-indol-3-yl)-2-((3-methoxy-5-(methylsulfonyl)phenyl)amino)ethanone] | – | 7400 | 26
4 | COc1cc(NC(C(=O)c2c[nH]c3cc(OC)ccc23)c2ccc(Cl)cc2OC)cc(S(C)(=O)=O)c1 (single isomer, unassigned) [Compound 3B, 2-(4-chloro-2-methoxyphenyl)-1-(6-methoxy-1H-indol-3-yl)-2-((3-methoxy-5-(methylsulfonyl)phenyl)amino)ethanone] | – | > 9700 | 3.8
5 | COc1cc(NC(C(=O)c2c[nH]c3cc(OC)c(C)cc23)c2ccc(Cl)cc2OC)cc(S(C)(=O)=O)c1 (single isomer, unassigned) [Compound 4B, 2-(4-chloro-2-methoxyphenyl)-2-((3-methoxy-5-(methyl-sulfonyl)phenyl)amino)-1-(6-methoxy-5-methyl-1H-indol-3-yl)ethanone] | – | 12000 | 36
6 | COc1cc(NC(C(=O)c2c[nH]c3cc(OC)c(F)cc23)c2ccc(Cl)cc2OC)cc(S(C)(=O)=O)c1 (single isomer, unassigned) [Compound 5B, 2-(4-chloro-2-methoxyphenyl)-1-(5-fluoro-6-methoxy-1H-indol-3-yl)-2-((3-methoxy-5-(methylsulfonyl)phenyl)amino)ethanone] | – | 13000 | 68
7 | COc1cc(NC(C(=O)c2c[nH]c3c(C)c(OC)ccc23)c2ccc(Cl)cc2OC)cc(S(C)(=O)=O)c1 (single isomer, unassigned) [Compound 6B, 2-(4-chloro-2-methoxyphenyl)-2-((3-methoxy-5-(methyl-sulfonyl)phenyl)amino)-1-(6-methoxy-7-methyl-1H-indol-3-yl)ethanone] | – | 11000 | 19
8 | COc1cc(NC(C(=O)c2c[nH]c3cc(F)c(C)cc23)c2ccc(Cl)cc2OC)cc(S(C)(=O)=O)c1 (single isomer, unassigned) [Compound 7A, 2-(4-chloro-2-methoxyphenyl)-1-(6-fluoro-5-methyl-1H-indol-3-yl)-2-((3-methoxy-5-(methylsulfonyl)phenyl)amino)ethanone] | – | 6800 | 13
9 | COc1cc(NC(C(=O)c2c[nH]c3ccc(C(F)(F)F)cc23)c2ccc(Cl)cc2OC)cc(S(C)(=O)=O)c1 (single isomer, unassigned) [Compound 8A, 2-(4-chloro-2-methoxyphenyl)-2-((3-methoxy-5-(methyl-sulfonyl)phenyl)amino)-1-(5-(trifluoromethyl)-1H-indol-3-yl)ethanone] | – | 7400 | 3
10 | COc1cc(NC(C(=O)c2c[nH]c3ccc(OC(F)(F)F)cc23)c2ccc(Cl)cc2OC)cc(S(C)(=O)=O)c1 (single isomer, unassigned) [Compound 9B, 2-(4-chloro-2-methoxyphenyl)-2-((3-methoxy-5-(methyl-sulfonyl)phenyl)amino)-1-(5-(trifluoromethoxy)-1H-indol-3-yl)ethanone] | – | 6200 | 3.8
11 | COc1cc(NC(C(=O)c2c[nH]c3cc(OC)c(OC(F)(F)F)cc23)c2ccc(Cl)cc2OC)cc(S(C)(=O)=O)c1 (single isomer, unassigned) [Compound 10B, 2-(4-chloro-2-methoxyphenyl)-2-((3-methoxy-5-(methylsulfonyl)phenyl)amino)-1-(6-methoxy-5-(trifluoromethoxy)-1H-indol-3-yl)ethanone] | – | 9800 | 3.9
12 | COc1cc(NC(C(=O)c2c[nH]c3c(C)cc(OC(F)(F)F)cc23)c2ccc(Cl)cc2OC)cc(S(C)(=O)=O)c1 (single isomer, unassigned) [Compound 11B, 2-(4-chloro-2-methoxyphenyl)-2-((3-methoxy-5-(methylsulfonyl)phenyl)amino)-1-(7-methyl-5-(trifluoromethoxy)-1H-indol-3-yl)ethanone] | – | 9200 | 4.1
